Assay results taken from patent publication US11506670B2, “Method of genome-wide direct identification of electrophile-sensing targets” (Cornell University, priority 2018, dated 2022).

What was measured:
[1] = tested on: NF-κB-signaling (Ube2V2); assay: NF-κB dual luciferase reporter assay after T-REX on Halo-Ube2V2; type: cell-based, human; conditions: T-REX HNEylation of Ube2V2 in place of Ube2V1
Experimental: 1.5-1.6×10^5 HEK 293T cells were seeded in each well of a 48-well plate. 24 h later, the cells were transfected with 120 ng of the designated HaloTag fusion gene plasmid and 120 ng of NF-kB-Firefly luciferase: pCMV-Renilla luciferase (40:1) mix, using TransIT-2020 transfection agent. 24 h post-transfection, cells were treated with 25 μM Ht-PreHNE or vehicle (corresponding volume of DMSO alone) for 2.5 h, rinsed three times and irradiated with 365 nm UV light for 10 min. The cells were incubated for a further 8 h. For dual luciferase assay, cells in each well were gently washed with 1×DPBS and lysed in 65 μL of 1× passive lysis buffer containing in final concentrations 25 mM Tris (pH 7.8), 2 mM 1,2-CDTA, 2 mM DTT, 1 mg/mL BSA, 1% Triton X-100, and 10% Glycerol. 20 μL of the lysate was transferred to a white opaque 96-well plate (Corning). Firefly luciferase was read after adding 50 μL Firefly substrate (75 mM HEPES pH 8.0, 4 mM MgSO4, 20 mM DTT, 0.1 mM EDTA, 0.53 mM ATP, 0.27 mM Coenzyme-A, 0.47 mM D-Luciferin Firefly). Subsequently, 50 μL of Stop and Glow substrate (7.5 mM sodium acetate pH 5.0, 400 mM sodium sulfate, 10 mM CDTA, 15 mM sodium pyrophosphate, 0.025 mM APMBT, 5.5 μM Coelenterazine) was added and Renilla luciferase activity was measured.

[2] = molecular target: T1, Ube2N (Homo sapiens, UniProt P61088); assay: Biotin azide/streptavidin pulldown of HNEylated proteins from mammalian lysate; type: cell-based; conditions: HEK293T, Halo-(FLAG)-Ube2V2 and HA-Ube2N
T1 construct: expressed in transfected cells; host or cells: HEK 293T
Experimental: HEK 293T cells were seeded in 60 cm^2 plate. After the cells reached 60% confluence (˜18-24 h), the old media were replaced with fresh 8 mL complete media. Cells were transfected with 7.5 μg of the designated plasmids encoding the HaloTag fusion gene and 30 μL PEI (1 mg/mL) in 600 μL in Opti-MEM media for 24-36 h after which the cells were treated with 25 μM Ht-PreHNE or without alkyne (control) for 2.5 h. Rinsing and light shining protocol were as described above. Cells were harvested, washed twice with chilled 1× DPBS and flash frozen.
Mammalian cell lysis was performed in 200 μL of lysis buffer containing in final concentrations 50 mM HEPES (pH 7.6), 150 mM NaCl, 1% Nonidet P-40 and 1× Roche cOmplete, mini, EDTA-free protease inhibitor cocktail by rapid freeze-thaw (×3). Lysate was clarified by centrifugation at 18,000×g for 30 min at 4° C.
Total protein concentration from either mammalian cell lysate or zebrafish lysate was determined using Bradford assay with BSA as standard. The lysate was subsequently diluted to 2 mg/mL with a buffer made up of 50 mM HEPES (pH 7.6) and 0.3 mM TCEP, and subjected to Click reaction with biotin azide for 30 min at 37° C. The final concentrations of each components were: 1% SDS, 5% t-BuOH, 200 μM Biotin azide, 2 mM TCEP, 0.9 mM CuSO4 and 0.1 mM Cu(TBTA). The lysate proteins were precipitated by adding 4 volumes of EtOH pre-chilled at −20° C. […]

[3] = molecular target: Ube2V2 (Homo sapiens, UniProt Q15819); assay: T-REX in zebrafish embryos, biotin/streptavidin pulldown of HNEylated Ube2V2; type: in vivo; conditions: human Halo-Ube2V2 mRNA-injected embryos
Experimental: Zebrafish cell lysis was performed with similar procedure as mammalian cells: 50 mM HEPES (pH 7.6), 150 mM NaCl, 1% Nonidet P-40, 0.2 mg/ml soybean protease inhibitor (Sigma), and 3× Roche cOmplete, mini, EDTA-free protease inhibitor cocktail by rapid freeze-thaw and votexing with zirconia beads (Bio spec 0.7 mm beads; 11079107zx).
Total protein concentration from either mammalian cell lysate or zebrafish lysate was determined using Bradford assay with BSA as standard. The lysate was subsequently diluted to 2 mg/mL with a buffer made up of 50 mM HEPES (pH 7.6) and 0.3 mM TCEP, and subjected to Click reaction with biotin azide for 30 min at 37° C. The final concentrations of each components were: 1% SDS, 5% t-BuOH, 200 μM Biotin azide, 2 mM TCEP, 0.9 mM CuSO4 and 0.1 mM Cu(TBTA). The lysate proteins were precipitated by adding 4 volumes of EtOH pre-chilled at −20° C. (EtOH final concentration is 80%). The sample was vortexed and incubated at −80° C. overnight (or at least 4 h) to facilitate precipitation. The precipitant was collected by centrifugation at 21,000×g for 120 min at 4° C. and washed twice with pre-chilled MeOH, once with pre-chilled acetone. […]
DDR preconditioning occurs in zebrafish embryos. […] Subsequently, the fish were fixed and γ-H2AX levels were measured using whole-mount immunofluorescence.

T1 sequence (P61088 whole entry): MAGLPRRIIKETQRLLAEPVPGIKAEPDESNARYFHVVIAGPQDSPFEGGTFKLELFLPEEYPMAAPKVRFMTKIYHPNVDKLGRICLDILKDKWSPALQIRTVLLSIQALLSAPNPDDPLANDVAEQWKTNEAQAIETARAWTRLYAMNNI
T1 sequence (Q15819 whole entry partner): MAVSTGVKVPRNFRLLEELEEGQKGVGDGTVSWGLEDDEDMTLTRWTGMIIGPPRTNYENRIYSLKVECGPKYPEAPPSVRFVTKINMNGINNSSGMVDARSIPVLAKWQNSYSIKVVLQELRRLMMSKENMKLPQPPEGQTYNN
Sequence of Ube2V2 (Q15819 whole entry): as the sequence (Q15819 whole entry partner) above

CCCCCC(O)/C=C/C=O (stereo not drawn) [HNE, 4-hydroxynonenal]
NF-κB-pathway activation [1]: did not result in NF-κB-pathway activation | HNEylation of Ube2N during T-REX delivery to Ube2V2 (affinity capture) [2]: no detectable HNEylation of Ube2N | HNEylation of Ube2V2 in zebrafish [3]: significantly HNEylated
